Measurements taken from patent publication US20260176320A1, “MODULATORS OF G-PROTEIN COUPLED RECEPTORS” (priority 2018, published 2026).
pEC50: −log10 of the molar value. Like-named read-outs stand apart in the source and are kept apart here.

What was measured:
Assay type in all cases: cell-based
[1] = molecular target: T1, GLP-1R (Homo sapiens, UniProt P43220); experiment: PathHunter β-arrestin assay
Method in brief: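 Cells seeded overnight, then medium replaced with medium containing 0.2% BSA; agonists added as 22-point 2-fold DMSO dilution series in duplicate and incubated 90 min at 37 °C, 5% CO2. After addition of detection solution, plates sat 3 h at room temperature in the dark; luminescence read.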

[2] = molecular target: T1, GLP-1R; experiment: HitHunter cAMP assay (GLP-1R); conditions: cAMP; for Emax: read-out: (Emax) GLP-1R
Method in brief: (§1)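 Suspension cells expressing each receptor (10,000 per well) in HBSS with 10 mM HEPES, 625 μM IBMX and 0.2% BSA were treated with a 22-point 2-fold agonist series in duplicate for 30 minutes at room temperature. cAMP was detected by antibody immunocompetition with luminescence read after overnight incubation.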

[3] = molecular target: T2, GIP-R (Homo sapiens, UniProt P48546); experiment: HitHunter cAMP assay (GIP-R); conditions: cAMP; for Emax: read-out: (Emax) GIP-R
T2 sequence (P48546 22-466): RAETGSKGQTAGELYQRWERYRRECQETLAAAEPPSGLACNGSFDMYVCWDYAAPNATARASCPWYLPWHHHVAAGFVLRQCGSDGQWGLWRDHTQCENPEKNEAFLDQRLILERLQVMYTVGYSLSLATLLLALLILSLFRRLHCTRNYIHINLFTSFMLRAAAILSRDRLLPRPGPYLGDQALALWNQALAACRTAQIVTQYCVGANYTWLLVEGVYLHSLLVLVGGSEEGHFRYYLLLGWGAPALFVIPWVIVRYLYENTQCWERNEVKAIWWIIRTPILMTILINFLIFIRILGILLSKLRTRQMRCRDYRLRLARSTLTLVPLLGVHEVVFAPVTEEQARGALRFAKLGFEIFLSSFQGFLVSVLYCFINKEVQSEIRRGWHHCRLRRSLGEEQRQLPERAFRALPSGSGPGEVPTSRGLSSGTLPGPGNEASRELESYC
Method in brief: as §1

[4] = PathHunter β-arrestin assay, read-out: β-arrestin activity EC50
[5] = Table 3, read-out: EC50 GLP-1R/nM
[6] = Table 3A, read-out: EC50 GLP-1R/nM
[7] = Table 3, read-out: EC50 GIP-R/nM
[8] = Table 3A, read-out: EC50 GIP-R/nM

T1 sequence (P43220 24-463): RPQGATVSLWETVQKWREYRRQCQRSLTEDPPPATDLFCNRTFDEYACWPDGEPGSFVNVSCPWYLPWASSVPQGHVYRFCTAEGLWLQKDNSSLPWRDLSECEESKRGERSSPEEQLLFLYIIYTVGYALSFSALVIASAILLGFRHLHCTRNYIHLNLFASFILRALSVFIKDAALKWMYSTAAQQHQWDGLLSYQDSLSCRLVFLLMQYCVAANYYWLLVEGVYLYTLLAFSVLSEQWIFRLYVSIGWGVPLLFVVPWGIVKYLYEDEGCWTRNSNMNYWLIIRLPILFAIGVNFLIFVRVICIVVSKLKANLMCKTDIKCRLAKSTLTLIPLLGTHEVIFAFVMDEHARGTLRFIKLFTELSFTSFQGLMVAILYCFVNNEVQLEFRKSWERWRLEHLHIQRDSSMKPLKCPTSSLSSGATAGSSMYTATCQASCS

Row | Compound | pEC50 [1] | EC50 ([2]; EC50 GLP-1R/nM, Table 3) | EC50 ([2]; EC50 GLP-1R/nM, Table 3A) | Emax ([2]; Table 3) | Emax ([2]; Table 3A) | EC50 ([3]; EC50 GIP-R/nM, Table 3) | EC50 ([3]; EC50 GIP-R/nM, Table 3A) | Emax ([3]; Table 3) | Emax ([3]; Table 3A) | pEC50 [1, 4] | EC50 [2, 5] | EC50 [2, 6] | EC50 [3, 7] | EC50 [3, 8]
1 | CC[C@H](C)[C@H](NC(=O)[C@H](CO)NC(=O)[C@H](Cc1ccc(O)cc1)NC(=O)[C@H](CC(=O)O)NC(=O)[C@H](CO)NC(=O)[C@@H](NC(=O)[C@H](Cc1ccccc1)NC(=O)[C@@H](NC(=O)CNC(=O)[C@H](CCC(=O)O)NC(=O)CSCC(=O)NCCN1Cc2ccccc2C1=O)[C@@H](C)O)[C@@H](C)O)C(=O)N[C@@H](Cc1ccc(O)cc1)C(=O)N[C@@H](CC(C)C)C(=O)N[C@@H](CC(=O)O)C(=O)N[C@@H](CCCCN)C(=O)N[C@@H](CCC(N)=O)C(=O)N[C@@H](C)C(=O)N[C@@H](C)C(=O)NC(C)(C)C(=O)N[C@@H](CCC(=O)O)C(=O)N[C@@H](Cc1ccccc1)C(=O)N[C@H](C(=O)N[C@@H](CC(N)=O)C(=O)N[C@@H](Cc1c[nH]c2ccccc12)C(=O)N[C@@H](CC(C)C)C(=O)N[C@@H](CC(C)C)C(=O)N[C@@H](C)C(=O)NCC(=O)NCC(=O)N1CCC[C@H]1C(=O)N[C@@H](CO)C(=O)N[C@@H](CO)C(=O)NCC(=O)N[C@@H](C)C(=O)N1CCC[C@H]1C(=O)N1CCC[C@H]1C(=O)N1CCC[C@H]1C(=O)N[C@@H](CO)C(=O)N[C@@H](CCCCN)C(N)=O)C(C)C [Compound 152] | < 6.00 | 10 to 100 nM | 10 to 100 nM | 85% | 85% | 1 to 10 nM | 1 to 10 nM | 103% | 103% |  |  |  |  | 
2 | CC[C@H](C)[C@H](NC(=O)[C@H](CO)NC(=O)[C@H](Cc1ccc(O)cc1)NC(=O)[C@H](CC(=O)O)NC(=O)[C@H](CO)NC(=O)[C@@H](NC(=O)[C@H](Cc1ccccc1)NC(=O)[C@@H](NC(=O)CNC(=O)[C@H](CCC(=O)O)NC(=O)C(C)(C)C(=O)NCCN1C(=O)CSC1=O)[C@@H](C)O)[C@@H](C)O)C(=O)N[C@@H](Cc1ccc(O)cc1)C(=O)N[C@@H](CC(C)C)C(=O)N[C@@H](CC(=O)O)C(=O)N[C@@H](CCCCN)C(=O)N[C@@H](CCC(N)=O)C(=O)N[C@@H](C)C(=O)N[C@@H](C)C(=O)NC(C)(C)C(=O)N[C@@H](CCC(=O)O)C(=O)N[C@@H](Cc1ccccc1)C(=O)N[C@H](C(=O)N[C@@H](CC(N)=O)C(=O)N[C@@H](Cc1c[nH]c2ccccc12)C(=O)N[C@@H](CC(C)C)C(=O)N[C@@H](CC(C)C)C(=O)N[C@@H](C)C(=O)NCC(=O)NCC(=O)N1CCC[C@H]1C(=O)N[C@@H](CO)C(=O)N[C@@H](CO)C(=O)NCC(=O)N[C@@H](C)C(=O)N1CCC[C@H]1C(=O)N1CCC[C@H]1C(=O)N1CCC[C@H]1C(=O)N[C@@H](CO)C(=O)N[C@@H](CCCCN)C(N)=O)C(C)C [Compound 153] |  |  |  | 107% | 107% |  |  | 75 to 85% | 75 to 85% | 6.00 to 8.00 | < 0.1 nM | < 0.1 nM | 10 to 100 nM | 10 to 100 nM
3 | CCCCCCCCCCCCCCCC(=O)N[C@@H](CCC(=O)NCCCC[C@H](NC(=O)[C@H](CO)NC(=O)[C@@H]1CCCN1C(=O)[C@@H]1CCCN1C(=O)[C@@H]1CCCN1C(=O)[C@H](C)NC(=O)CNC(=O)[C@H](CO)NC(=O)[C@H](CO)NC(=O)[C@@H]1CCCN1C(=O)CNC(=O)CNC(=O)[C@H](C)NC(=O)[C@H](CC(C)C)NC(=O)[C@H](CC(C)C)NC(=O)[C@H](Cc1c[nH]c2ccccc12)NC(=O)[C@H](CC(N)=O)NC(=O)[C@@H](NC(=O)[C@H](Cc1ccccc1)NC(=O)[C@H](CCC(=O)O)NC(=O)C(C)(C)NC(=O)[C@H](C)NC(=O)[C@H](C)NC(=O)[C@H](CCC(N)=O)NC(=O)[C@H](CCCCN)NC(=O)[C@H](CC(=O)O)NC(=O)[C@H](CC(C)C)NC(=O)[C@H](Cc1ccc(O)cc1)NC(=O)[C@@H](NC(=O)[C@H](CO)NC(=O)[C@H](Cc1ccc(O)cc1)NC(=O)[C@H](CC(=O)O)NC(=O)[C@H](CO)NC(=O)[C@@H](NC(=O)[C@H](Cc1ccccc1)NC(=O)[C@@H](NC(=O)CNC(=O)[C@H](CCC(=O)O)NC(=O)CCCC(=O)NCCN1CCCCC1=O)[C@@H](C)O)[C@@H](C)O)[C@@H](C)CC)C(C)C)C(N)=O)C(=O)O [Compound 27] |  |  |  | 95% | 95% |  |  | 45% | 45% | < 6.00 | 0.1 to 1 nM | 0.1 to 1 nM | 1 to 10 nM | 1 to 10 nM
4 | CCCCCCCCCCCCCCCC(=O)N[C@@H](CCC(=O)NCCCC[C@H](NC(=O)[C@H](CO)NC(=O)[C@@H]1CCCN1C(=O)[C@@H]1CCCN1C(=O)[C@@H]1CCCN1C(=O)[C@H](C)NC(=O)CNC(=O)[C@H](CO)NC(=O)[C@H](CO)NC(=O)[C@@H]1CCCN1C(=O)CNC(=O)CNC(=O)[C@H](C)NC(=O)[C@H](CC(C)C)NC(=O)[C@H](CC(C)C)NC(=O)[C@H](Cc1c[nH]c2ccccc12)NC(=O)[C@H](CC(N)=O)NC(=O)[C@@H](NC(=O)[C@H](Cc1ccccc1)NC(=O)[C@H](CCC(=O)O)NC(=O)C(C)(C)NC(=O)[C@H](C)NC(=O)[C@H](C)NC(=O)[C@H](CCC(N)=O)NC(=O)[C@H](CCCCN)NC(=O)[C@H](CC(=O)O)NC(=O)[C@H](CC(C)C)NC(=O)[C@H](Cc1ccc(O)cc1)NC(=O)[C@@H](NC(=O)[C@H](CO)NC(=O)[C@H](Cc1ccc(O)cc1)NC(=O)[C@H](CC(=O)O)NC(=O)[C@H](CO)NC(=O)[C@@H](NC(=O)[C@H](Cc1ccccc1)NC(=O)[C@@H](NC(=O)CNC(=O)[C@H](CCC(=O)O)NC(=O)CSCC(=O)NCCN1C(=O)[C@H]2CC[C@H]2C1=O)[C@@H](C)O)[C@@H](C)O)[C@@H](C)CC)C(C)C)C(N)=O)C(=O)O [Compound 97] | < 6.00 | 1 to 10 nM | 1 to 10 nM | 99% | 99% | 0.1 to 1 nM | 0.1 to 1 nM | 93% | 93% |  |  |  |  | 
5 | CCCCCCCCCCCCCCCC(=O)N[C@@H](CCC(=O)NCCCC[C@H](NC(=O)[C@H](CO)NC(=O)[C@@H]1CCCN1C(=O)[C@@H]1CCCN1C(=O)[C@@H]1CCCN1C(=O)[C@H](C)NC(=O)CNC(=O)[C@H](CO)NC(=O)[C@H](CO)NC(=O)[C@@H]1CCCN1C(=O)CNC(=O)CNC(=O)[C@H](C)NC(=O)[C@H](CC(C)C)NC(=O)[C@H](CC(C)C)NC(=O)[C@H](Cc1c[nH]c2ccccc12)NC(=O)[C@H](CC(N)=O)NC(=O)[C@@H](NC(=O)[C@H](Cc1ccccc1)NC(=O)[C@H](CCC(=O)O)NC(=O)C(C)(C)NC(=O)[C@H](C)NC(=O)[C@H](C)NC(=O)[C@H](CCC(N)=O)NC(=O)[C@H](CCCCN)NC(=O)[C@H](CC(=O)O)NC(=O)[C@H](CC(C)C)NC(=O)[C@H](Cc1ccc(O)cc1)NC(=O)[C@@H](NC(=O)[C@H](CO)NC(=O)[C@H](Cc1ccc(O)cc1)NC(=O)[C@H](CC(=O)O)NC(=O)[C@H](CO)NC(=O)[C@@H](NC(=O)[C@H](Cc1ccccc1)NC(=O)[C@@H](NC(=O)CNC(=O)[C@H](CCC(=O)O)NC(=O)CSCC(=O)NCCN1C(=O)c2ccccc2C1=O)[C@@H](C)O)[C@@H](C)O)[C@@H](C)CC)C(C)C)C(N)=O)C(=O)O [Compound 173] | < 6.00 | 1 to 10 nM | 1 to 10 nM | 90 to 105% | 90 to 105% | 0.1 to 1 nM | 0.1 to 1 nM | 92 to 111% | 92 to 111% |  |  |  |  | 
6 | CC[C@H](C)[C@H](NC(=O)[C@H](CO)NC(=O)[C@H](Cc1ccc(O)cc1)NC(=O)[C@H](CC(=O)O)NC(=O)[C@H](CO)NC(=O)[C@@H](NC(=O)[C@H](Cc1ccccc1)NC(=O)[C@@H](NC(=O)CNC(=O)[C@H](CCC(=O)O)NC(=O)CCCC(=O)NCCN1C(=O)CSC1=O)[C@@H](C)O)[C@@H](C)O)C(=O)N[C@@H](Cc1ccc(O)cc1)C(=O)N[C@@H](CC(C)C)C(=O)N[C@@H](CC(=O)O)C(=O)N[C@@H](CCCCN)C(=O)N[C@@H](CCC(N)=O)C(=O)N[C@@H](C)C(=O)N[C@@H](C)C(=O)NC(C)(C)C(=O)N[C@@H](CCC(=O)O)C(=O)N[C@@H](Cc1ccccc1)C(=O)N[C@H](C(=O)N[C@@H](CC(N)=O)C(=O)N[C@@H](Cc1c[nH]c2ccccc12)C(=O)N[C@@H](CC(C)C)C(=O)N[C@@H](CC(C)C)C(=O)N[C@@H](C)C(=O)NCC(=O)NCC(=O)N1CCC[C@H]1C(=O)N[C@@H](CO)C(=O)N[C@@H](CO)C(=O)NCC(=O)N[C@@H](C)C(=O)N1CCC[C@H]1C(=O)N1CCC[C@H]1C(=O)N1CCC[C@H]1C(=O)N[C@@H](CO)C(=O)N[C@@H](CCCCN)C(N)=O)C(C)C [Compound 193] |  |  |  | 117% | 117% |  |  | 44% | 44% | < 6.00 | 1 to 10 nM | 1 to 10 nM | 10 to 100 nM | 10 to 100 nM
